99 compounds from ChEMBL document CHEMBL3507680, “University of Dundee, Gates Library screen for HepG2 cell viability” can be followed below.

This data set can be described thus: Human HepG2 cell viability assay in 384 well format. It counts as toxicity, cell-based. On the set-up: dose 125 nL, time 70.5 hour; concentration not given beside the values. Conditions: HepG2 cells, read-out: Inhibition.

Molecules are shown by their SMILES.

Consider `CCCc1ccc2oc(C(=O)N3CCN(CCC(N)=O)CC3)c(C)c2c1`, for which the cytotoxicity at 70.5 h amounted to 19.5%. In the case of `CN(Cc1cccc(C(F)(F)F)c1)Cc1nc(-c2cnccn2)no1`, the cytotoxicity at 70.5 h is -8.53%.

As for `Cc1nn(C)c(C)c1CN(C(=O)c1cc(Cl)c[nH]c1=O)C(C)C`, the cytotoxicity at 70.5 h was -11%. The result for `Cn1ccnc1-c1nccn1-c1cccc(CN2CCCC2)c1` reads 2.21%; that for `O=S(=O)(Cc1ccccc1CN1CC[C@H](CO)[C@H](O)C1)c1ccccc1`, -7.73%. The result for `COc1cc(F)ccc1-c1cc(CO)ccn1` reads -8.15%; that for `Cc1nc[nH]c1CN1CCC(CNC(=O)c2cccc3cnccc23)C1` (centres undefined), -7.78%. The result for `Cc1ncc2c(c1CNC(=O)C1(C)CC1)CCNC2` reads -7.68%; that for `Nc1nc2c(c(NCc3ccc(C(=O)N4CCCC4)cc3)n1)CCCC2`, 2.85%; that for `NC(=O)CCNC(=O)C1(N2CCCCC2)Cc2ccccc2C1`, 9.16%. `Cc1ccc(-c2ccnc(NC(C)c3c(C)n[nH]c3C)n2)c(C)n1` (centres undefined): the cytotoxicity at 70.5 h was -8.64%. Turning to `CCOCC(=O)NC(C)c1cc(C)ccc1C` (centres undefined), the cytotoxicity at 70.5 h is 12.7%. The result for `O=C(C1CCOCC1)N1C[C@H]2CC[C@@H]1CN(C1Cc3ccccc3C1)C2` reads -5.9%.

For the compound `COc1cccc2c(=O)n(Cc3ccnc(C)c3)cnc12`, the cytotoxicity at 70.5 h is -26.7%. To `Cc1nccn1CCCN1CCCC(c2nccn2CC2CCC2)C1` (centres undefined) belongs -12.7%. Regarding `Cc1ccc(-n2cccn2)cc1S(=O)(=O)N1C[C@@H]2CC[C@H](C1)N(C)C2`, the cytotoxicity at 70.5 h is -1.91%.

As for `CCn1nc(CC(C)C)cc1C(=O)N1CCOCC(O)C1` (centres undefined), the cytotoxicity at 70.5 h is -2.68%.

Consider `CC(C)(C)c1oc(C(N)=O)cc1CN1CCOC(C(F)(F)F)C1` (centres undefined), for which the cytotoxicity at 70.5 h stood at 1.68%.

For `CC(O)Cc1cn(CC2CCN(C3CCSCC3)CC2)nn1` (centres undefined), the cytotoxicity at 70.5 h was -4.31%. To `COc1cccc(Cn2ncnc2CCC(C)N2CCN(C)CC2)c1` (centres undefined) belongs -4.48%; to `COCc1nc(CNc2cc(C)nc(-c3ccccc3)n2)no1`, -8.75%.

For the compound `CSc1ccc(-c2nc(CN3C[C@@H](C)NC[C@@H]3C)c(C)o2)cc1`, the cytotoxicity at 70.5 h is -4.1%. As for `c1ccc(-c2cc(CN3C[C@@H]4CC[C@H](C3)N(CC3CCC3)C4)on2)cc1`, the cytotoxicity at 70.5 h was -11.6%.

As to `CC(c1nccs1)N(C)C(=O)c1cc(CN(C)Cc2ccccc2)on1` (centres undefined), the cytotoxicity at 70.5 h turned out to be 0.573%. As to `Cc1ccccc1OC(C(=O)N1CCC2(CC1)CN(C)C(=O)O2)C(C)C` (centres undefined), the cytotoxicity at 70.5 h is -4.56%. To `Cc1ccnc(CC(C)N(C)c2cc(CN)nc(C)n2)c1` (centres undefined) belongs -5.59%. To `CCOc1ccc(C(C)Nc2ncnc3c2CCNC3)cc1OCC` (centres undefined) belongs -12%; to `Cn1cc(-c2ccnc(NCC3CCCCO3)n2)cn1` (centres undefined), 9.61%. To `COc1ccc(-c2noc(C3CC(C(C)C)=NO3)n2)cc1` (centres undefined) belongs 1.77%. With `C=C(C)COc1ccccc1CNC(CC)c1ccnn1C` (centres undefined), the cytotoxicity at 70.5 h was -5.65%. The result for `Cc1occc1C(=O)N1CCC2(CCCN(CC3CC3)C2=O)C1` (centres undefined) reads -15%. On to `Cc1cc(N2CCC(NC(C)Cc3ccsc3)CC2)nc(N)n1` (centres undefined), for which the cytotoxicity at 70.5 h was 32.9%. As to `O=C(NCCC1CCCCO1)c1cc(COc2cncc(Cl)c2)on1` (centres undefined), the cytotoxicity at 70.5 h came out at 14.4%.

Regarding `CC(=O)NC(C(=O)N1CCn2cncc2C1)C(C)C` (centres undefined), the cytotoxicity at 70.5 h was -2.16%. The result for `Cc1nonc1CN(C)Cc1nc(-c2cccc(F)c2F)oc1C` reads -7.8%; that for `O=C(O)c1ccnc(-c2ccnc(COc3ccccc3Cl)n2)c1`, -7.03%. The result for `COc1ccc(OC)c(-n2cnnc2CN)c1` reads -2.21%. `CCn1nccc1S(=O)(=O)N1CCC2(CCCN(C(C)C)C2=O)C1` (centres undefined): the cytotoxicity at 70.5 h is -14.6%.

With `COc1ccc(CNC(=O)N2CCN(C)[C@@H]3CS(=O)(=O)C[C@@H]32)cc1`, the cytotoxicity at 70.5 h is -1.34%. Take `CCO[C@H]1COC[C@@H]1NC(=O)c1c[nH]nc1C1CCCCC1`: the cytotoxicity at 70.5 h was found to be 19.5%. The result for `N#Cc1cccc(NC2CC(=O)N(Cc3cccc(F)c3)C2)n1` (centres undefined) reads -8.43%.

For `Cc1cccc(-c2nccn2-c2cccc(CC(=O)O)c2)n1`, the cytotoxicity at 70.5 h is -9.85%. For the compound `CNc1nc2c(c(C(=O)N3CCCC3)n1)CN(Cc1cc(C)no1)CC2`, the cytotoxicity at 70.5 h amounted to 10.8%.

Take `CCC(C(=O)NC1CCCC1)n1ccc2ncccc2c1=O` (centres undefined): the cytotoxicity at 70.5 h is -16.4%. On to `Cc1nc(N2CCN3CCCCC3C2)nc2cc(S(C)(=O)=O)ccc12` (centres undefined), for which the cytotoxicity at 70.5 h came out at 0.525%. To `NC(=O)CN1CCC(C(=O)NCCn2cc(Cl)cn2)CC1` belongs 3.62%; to `COCCNC(=O)c1cc(COc2cncc(Cl)c2)on1`, -3.27%; to `Cc1cc(C(=O)N2CCCC3(CNC(=O)O3)C2)c2c(C)nn(C)c2n1` (centres undefined), -5.33%. To `COc1nccnc1-c1cccc(-c2ccn(CC3COCCO3)n2)c1` (centres undefined) belongs -6.47%; to `CCn1c(N)nc2cc(C(=O)N3CCN(c4ccncc4)CC3)cnc21`, -2.2%. Consider `O=C1N(CCO)CCCC12CCN(Cc1noc(C3CCCC3)n1)C2` (centres undefined), for which the cytotoxicity at 70.5 h turned out to be 5.43%. To `O=C(Nc1ccccc1OCc1ccccn1)NC1CCOCC1` belongs -8.37%; to `CN(Cc1noc2c1CCCC2)C(=O)CN1C(=O)CSc2ccccc21`, 3.41%; to `COc1cccc(-c2ncc(CN3C[C@@H]4CC[C@H](C3)N(C)C4=O)s2)c1`, -0.692%.

Consider `Cc1nccn1CCC1CCN(C(=O)C2CC3(CCNCC3)CN2)CC1` (centres undefined), for which the cytotoxicity at 70.5 h was -8.48%.

Take `CCC(=O)N1CCCC(C(=O)N2CCN(c3cnn(C)c(=O)c3)CC2)C1` (centres undefined): the cytotoxicity at 70.5 h was -12.7%. To `Cc1ncnc(NCCCN2CCCCC2CO)c1C` (centres undefined) belongs -1.1%.

`O=C(O)COc1ccc(CN2CCCC(CCc3ccccc3)C2)cc1` (centres undefined): the cytotoxicity at 70.5 h came to 20.1%.

Regarding `Cn1ncnc1-c1ccnc(NCCCc2ccncc2)n1`, the cytotoxicity at 70.5 h was -17.5%. Turning to `Cc1nc(O)cc(CN2CC=C(c3cnn(-c4ccccc4)c3)CC2)n1`, the cytotoxicity at 70.5 h was determined as 14.1%. Consider `CC(C)OC(=O)N1C[C@H]2CC[C@@H]1CN(C(=O)c1ccccn1)C2`, for which the cytotoxicity at 70.5 h is 10.5%.

For the compound `COc1cc(Oc2ncccc2C(F)(F)F)ccc1CN1CCCC1`, the cytotoxicity at 70.5 h is 4.5%. In the case of `CCc1cnc(N)nc1NCc1ccc(OC)cc1OC`, the cytotoxicity at 70.5 h is -0.135%. Regarding `CC(C)SCC(=O)N1Cc2cnc(-c3ccccc3)nc2C1`, the cytotoxicity at 70.5 h is -7.54%.

As for `COc1cccc(C2CCCN2C(=O)CC2=CSC3=NCCCN23)c1` (centres undefined), the cytotoxicity at 70.5 h was -12%. On to `CCC(C)N(Cc1cccnc1)C(=O)c1ncccc1O` (centres undefined), for which the cytotoxicity at 70.5 h was -8.41%. Take `CCCn1ncnc1C(C)NC(=O)C1CCN(C(C)C)CC1` (centres undefined): the cytotoxicity at 70.5 h was -4.07%. To `COCc1nc(N2CC[C@H](N(C)C)C2)c2cnn(C)c2n1` belongs -10%. To `Cc1nc(C(C)C)sc1C(=O)N1CCN(C2CCSCC2)CC1` belongs 9.03%; to `Cc1ccc(-c2ccnc(NC(C)c3ncc[nH]3)n2)c(C)n1` (centres undefined), -10.5%; to `COc1cccc([C@H]2CN(CCCS(=O)(=O)N(C)C)C[C@@H]2N)c1`, -3.42%.

Turning to `CCN1CCC(CC(=O)NCc2nc(C)cc(C)n2)CC1`, the cytotoxicity at 70.5 h was -3.98%. To `O=C(COCC(F)(F)C(F)F)N1CCC2(CCCN(CCO)C2=O)C1` (centres undefined) belongs -2.98%. The result for `Cc1ccc(O)c(-c2cc(NCCO)nc3[nH]ccc23)c1` reads -4.62%; that for `O=C(O)c1ccnc(-c2ccnc(COc3cccc(F)c3)n2)c1`, 16.7%; that for `Cc1nn(C)c2ncnc(N(C)CC3CCN(CC(C)C)C3)c12` (centres undefined), -2.77%. Regarding `CC(=O)N1CCN(Cc2c(C)sc3ccccc23)CC(O)C1` (centres undefined), the cytotoxicity at 70.5 h is -3.67%. To `COc1cccc(CC(=O)N2CCC3(CC2)OCCCC3O)c1OC` (centres undefined) belongs -7.1%; to `Cc1cc(=O)n(CC(=O)Nc2cccc(Cl)c2)nc1C`, 21.6%. The result for `CCN(CCO)C(=O)C1CCC(=O)N(CCc2cccc(F)c2)C1` (centres undefined) reads -1.58%; that for `CCCS(=O)(=O)N1CCN(c2cc(-n3cnc(C)c3C)ncn2)CC1`, 2.79%.

`CC(COc1ccccc1)NS(C)(=O)=O` (centres undefined): the cytotoxicity at 70.5 h was -1.8%.

For the compound `CCC(NC1CCCC1)c1ccc(S(C)(=O)=O)cc1` (centres undefined), the cytotoxicity at 70.5 h was -12.8%. As to `O=C(COCC1CCCO1)N1CCCN(Cc2ccccc2F)CC1` (centres undefined), the cytotoxicity at 70.5 h was -5.89%. Turning to `COc1ccc2c(C(=O)N(C)C)cc(-c3cnc(N)nc3)nc2c1`, the cytotoxicity at 70.5 h was -3.44%. The result for `Cc1nnc(CCNC(=O)c2coc(CN3CCOCC3)c2)s1` reads 1.37%; that for `CCC(NS(C)(=O)=O)c1ccccc1C` (centres undefined), 10.1%; that for `CN(CC1Cc2ccccc2CN1C)c1nc(N)nc2c1CCNCC2` (centres undefined), -9.32%. The result for `CN1CC2(CCCN(Cc3cccc(Oc4ccccc4)c3)C2)OC1=O` (centres undefined) reads 24.6%. To `O=S1(=O)CCC(n2cc(C3=CCN(CCc4ccccc4)CC3)cn2)C1` (centres undefined) belongs -2.15%. For `CCCC(=O)N1CCN(c2cc(-n3cnc(C)c3C)nc(C)n2)CC1`, the cytotoxicity at 70.5 h is -2.01%. Take `O=C1CC(c2ccc(F)cc2)c2cnn(C3CCCC3)c2N1` (centres undefined): the cytotoxicity at 70.5 h is -7.98%. On to `CCOc1cccc(C2CC(=O)NCc3nc(N(C)C)sc32)c1` (centres undefined), for which the cytotoxicity at 70.5 h was -5.3%. To `COCC(=O)N1CCC(C(=O)Nc2ccc(C(C)=O)cc2)CC1` belongs -7.91%; to `COCCN1CC2(CCCN(c3ncnc4[nH]cnc34)C2)CCC1=O` (centres undefined), -1.89%. The result for `CCC1CCCCN1S(=O)(=O)c1c(N)noc1C` (centres undefined) reads -2.36%.

`Cc1ccc(OCC(C)NS(C)(=O)=O)cc1` (centres undefined): the cytotoxicity at 70.5 h was -4.31%. In the case of `Cc1nc(N2CCN(S(C)(=O)=O)CC2)cc(-n2cnc(C)c2C)n1`, the cytotoxicity at 70.5 h is -3.21%.

For `CN(Cc1ccc(-n2cncn2)cc1)Cc1ncc[nH]1`, the cytotoxicity at 70.5 h was -0.834%.
